Laboratory results published in US5245050A, “Derivatives of physiologically active substance ML-236B and process for production thereof” (Tobishi Yakuhin Kogyo Kabushiki Kaisha, priority 1988, dated 1993).

Molecular target: T1, HMG-CoA reductase (Rattus norvegicus, UniProt P51639)
T1 construct: 0.6 mg/ml of rat liver microsome fraction; from tissue; host or cells: rat liver (microsome fraction)
T1 sequence (P51639 1-887): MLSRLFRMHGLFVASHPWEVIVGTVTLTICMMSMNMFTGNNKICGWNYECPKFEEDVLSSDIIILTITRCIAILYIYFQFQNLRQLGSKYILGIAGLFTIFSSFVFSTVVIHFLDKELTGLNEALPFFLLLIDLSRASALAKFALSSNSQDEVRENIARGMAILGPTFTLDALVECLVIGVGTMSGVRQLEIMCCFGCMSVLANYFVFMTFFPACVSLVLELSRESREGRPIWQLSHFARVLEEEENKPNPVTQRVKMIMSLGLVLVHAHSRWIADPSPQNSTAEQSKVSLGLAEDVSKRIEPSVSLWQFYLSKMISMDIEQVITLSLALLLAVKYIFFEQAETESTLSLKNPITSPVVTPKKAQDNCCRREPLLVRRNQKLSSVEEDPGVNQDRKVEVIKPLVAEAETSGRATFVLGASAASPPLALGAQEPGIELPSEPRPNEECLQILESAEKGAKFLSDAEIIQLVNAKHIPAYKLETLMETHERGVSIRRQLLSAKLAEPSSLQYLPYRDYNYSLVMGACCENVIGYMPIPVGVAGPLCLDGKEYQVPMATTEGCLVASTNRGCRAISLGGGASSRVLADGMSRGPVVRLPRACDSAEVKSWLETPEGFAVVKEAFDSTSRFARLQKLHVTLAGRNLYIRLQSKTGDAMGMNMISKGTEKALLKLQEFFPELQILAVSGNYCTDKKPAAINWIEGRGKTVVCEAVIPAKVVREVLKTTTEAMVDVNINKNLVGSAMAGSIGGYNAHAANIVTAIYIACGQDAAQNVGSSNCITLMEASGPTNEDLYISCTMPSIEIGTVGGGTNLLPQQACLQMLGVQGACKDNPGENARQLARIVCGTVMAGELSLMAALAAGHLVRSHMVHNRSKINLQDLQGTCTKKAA
Assay: HMG-CoA reductase inhibitory activity ([14C]HMG-CoA to [14C]mevalonic acid, rat liver microsome fraction)
Type: biochemical
Details: for remaining activity at 0.1 µg/mL: 0.1 μg/ml; for IC50: rat liver microsome fraction, 37° C., 30 minutes, read-out: I50 (amount of sample necessary to inhibit the HMG-CoA reductase activity to 50%) (converted); for remaining activity at 10 µg/mL: 10 μg/ml
Experimental: The HMG-CoA reductase activity can be determined by using [^14 C] HMG-CoA as a substrate and measuring the resulting [^14 C] mevalonic acid (Kuroda and Endo, Biochem Biophys Acta, 486, 70-81), as described in detail in the following.
A reaction mixture contains 100 mM of potassium phosphate buffer (pH 7.4), 10 mM of EDTA, 10 mM of dithiothreitol, 10 mM of NADPH, 0.11 mM of DL-[3-^14 C] HMG-CoA (4.5 mCi/mmol), and 0.6 mg/ml of rat liver microsome fraction. The final volume of reaction mixture is 50 μl including 1 μl of a methanol solution of a test sample. A reaction is started by adding the substrate HMG-CoA, continued at 37° C. for 30 minutes, and terminated by adding 10 μl of 2N hydrochloric acid solution To this reaction mixture is added 20 μl of 100 mM [5-^3 H] mevaronic acid (22.7 μCi/mmol), and the reaction is carried out at 37° C. for a further 15 minutes. Using 40 μl of this reaction mixture as a carrier, 5 μl of 200 mM mevaronic acid (lactone type) is spotted on a silica gel plate, and after development by benzene/acetone (1:1) mixture, a spot of mevaronic acid is peeled off and suspended in a liquid scintillator to measure the radio activity thereof. The inhibitory activity is expressed by an amount of a sample necessary to inhibit the HMG-CoA reductase activity to 50% (I50 value).

[1] = read-out: Enzyme activity (% relating to control)

| Compound | remaining activity at 0.1 µg/mL [1] [%] | remaining activity at 1 µg/mL (1 μg/ml, read-out: Enzyme activity (% relating to control)) [%] | IC50 [nM] | remaining activity at 10 µg/mL [1] [%] |
| --- | --- | --- | --- | --- |
| CCC(C)C(=O)OC1CCC2C(F)(F)C23C=CC(C)C(CCC2CC(O)CC(=O)O2)C13 (stereo not drawn) [(1)] | 74 | 27 | 681 | – |
| CCC(C)C(=O)OC1CCC2CC23C=CC(C)C(CCC2CC(O)CC(=O)O2)C13 (stereo not drawn) [(4)] | 63 | – | 544 | 7.6 |
| CCC(C)C(=O)OC1CCC2C(Cl)(Cl)C23C=CC(C)C(CCC(O)CC(O)CC(N)=O)C13 (stereo not drawn) [(7)] | 98 | – | > 2040 | 30 |
| CCC(C)C(=O)OC1CCC2C(Cl)C23C=CC(C)C(CCC2CC(O)CC(=O)O2)C13 (stereo not drawn) [Compound (6)] | 71 | – | 683 | 4.7 |
